Legend:
Settings in all cases: 72 h
[1] = tested on: Vero E6; experiment: cell viability relative to DMSO; higher = less toxic
[2] = tested on: Caco-2; experiment: as above
[3] = tested on: HepG2; experiment: as above
[4] = tested on: U2OS; experiment: as above
[5] = tested on: Calu-3; experiment: as above
[6] = tested on: Vero E6; experiment: drug sensitivity score (DSS) for viability; higher = more toxic; extreme values may be limits of the assay
[7] = tested on: Caco-2; experiment: as above
[8] = tested on: HepG2; experiment: as above
[9] = tested on: U2OS; experiment: as above
[10] = tested on: Calu-3; experiment: as above
[11] = tested on: Vero E6; experiment: relative viability EC50 (midpoint between 100% and the lowest measured viability); higher = less toxic
[12] = tested on: Caco-2; experiment: as above
[13] = tested on: HepG2; experiment: as above
[14] = tested on: U2OS; experiment: as above
[15] = tested on: Calu-3; experiment: as above

SMILES	cell viability ([1]; 1 nM) [%]	cell viability ([1]; 10 nM) [%]	cell viability ([1]; 100 nM) [%]	cell viability ([1]; 1000 nM) [%]	cell viability ([1]; 10000 nM) [%]	cell viability ([2]; 1 nM) [%]	cell viability ([2]; 10 nM) [%]	cell viability ([2]; 100 nM) [%]	cell viability ([2]; 1000 nM) [%]	cell viability ([2]; 10000 nM) [%]	cell viability ([3]; 1 nM) [%]	cell viability ([3]; 10 nM) [%]	cell viability ([3]; 100 nM) [%]	cell viability ([3]; 1000 nM) [%]	cell viability ([3]; 10000 nM) [%]	cell viability ([4]; 1 nM) [%]	cell viability ([4]; 10 nM) [%]	cell viability ([4]; 100 nM) [%]	cell viability ([4]; 1000 nM) [%]	cell viability ([4]; 10000 nM) [%]	cell viability ([5]; 1 nM) [%]	cell viability ([5]; 10 nM) [%]	cell viability ([5]; 100 nM) [%]	cell viability ([5]; 1000 nM) [%]	cell viability ([5]; 10000 nM) [%]	drug sensitivity score [6]	drug sensitivity score [7]	drug sensitivity score [8]	drug sensitivity score [9]	drug sensitivity score [10]	relative viability EC50 [11] [µM]	relative viability EC50 [12] [µM]	relative viability EC50 [13] [µM]	relative viability EC50 [14] [µM]	relative viability EC50 [15] [µM]
O=C(Nc1cc(C(F)(F)F)ccc1O)Nc1cc(C(F)(F)F)ccc1O [NS-1643]	98.8	103	100	99.1	95.1	108	101	102	95	88.3	95.3	105	110	94.7	92.5	99.3	100	104	102	96.9	102	94.7	103	97.4	104	0	0.2	0	0	0	> 10	> 10	> 10	> 10	> 10
O=C(Nc1cccc(C(F)(F)F)c1)Nc1ccc(Br)cc1-c1nnn[nH]1 [NS-3623]	93.3	101	92.4	94.6	110	98	99.8	100	97.8	101	102	102	92.5	98.7	112	99.6	97.8	97.6	99.2	96.2	107	92.8	95.3	102	100	0	0	0	0	0	> 10	> 10	> 10	> 10	> 10
CCNC(=O)c1noc(-c2cc(C(C)C)c(O)cc2O)c1-c1ccc(CN2CCOCC2)cc1 [NVP-AUY922]	104	106	47.1	26.6	25.6	100	77.1	30.3	28.2	31.4	103	27.5	1.2	0.8	1.2	93	57.9	3	3.5	1	84.2	83.9	46	37.3	29.6	19.8	25.1	38.6	34.8	20.5	0.0702	0.0149	0.0067	0.012	0.0281
Cn1c(=O)n(-c2ccc(C(C)(C)C#N)cc2)c2c3cc(-c4cnc5ccccc5c4)ccc3ncc21 [NVP-BEZ235]	98.4	102	93.9	57.5	38.1	98.6	102	85.2	40.1	40.3	99.7	110	98.4	71.8	30.1	101	99.9	98.9	37.9	20.7	95.4	98.5	77.2	40.6	28.7	8.8	13.4	7.5	11.7	13.7	0.552	0.156	1.19	0.585	0.209
O=[N+]([O-])c1cc(O)c(O)c([N+](=O)[O-])c1 [OR-486]	97.6	99	102	100	97	93.2	103	103	97	94.3	101	98.3	98.3	93.6	96.7	98.2	102	96.5	103	98	102	100	95.2	94	99.5	0	0	0	0	0	> 10	> 10	> 10	> 10	> 10
CCCCn1c(=O)c2[nH]c(C34CC5CC(CC3C5)C4)nc2n(CCCO)c1=O [PSB-36]	99.3	93.5	98.1	84.9	100	96.5	102	98	101	91.9	105	95.4	103	99.3	97.3	98.5	98.9	88.6	89.1	86	99	93.4	98.7	91	80.4	0	0	0	1.7	1.1	> 10	> 10	> 10	> 10	> 10
COc1cc2nc(N3CCN(C(=O)COc4c(OC)cccc4C(C)C)CC3)nc(N)c2cc1OC [Rec-15/2615]	98.8	99.3	99.4	99.6	95.5	84.3	102	101	90.1	84.4	91.2	92.1	103	92	83.7	96.4	97.9	94.3	95.9	84.2	98.7	102	97.3	95.4	84.8	0	1	1	0.1	0.4	> 10	> 10	> 10	> 10	> 10
